Data reported in patent EP0242417B1, “Morphinane-skeletoned hydrazone derivatives, process for preparing them, pharmaceutical composition and use” (ALKALOIDA VEGYéSZETI GYáR, priority 1986, dated 1987).

Experiments:
[1] = Sensitivity to light of the isolated product
opiate receptors = assay: Competition for tritiated Naloxon specific binding in rat brain membrane preparates; conditions: tritiated Naloxon bond (1 nanomole) taken as 100 %
Procedure: The effect of the 10⁻⁷ and 10⁻⁵ M concentration of the compounds was examined to tritiated Naloxon bond in rat brain membrane preparates. […]
If the inhibition is high, i.e. the value of the specific bond of the labelled Naloxon is low, the compounds bind to the opiate receptors with high affinity.
A comparative data the tritiated Naloxon bond (concentration: 1 nanomole) was taken as 100 % (without excipients).
The membrane preparate was prepared according to the following article: G.W. Pasternak, H.A. Wilson, S.H. Snyder: Molecular Pharmacol. 11 340-51 (1975).
The specific radioactivity of the labelled Naloxon was 72.4 Ci/mmole [G. Töth, M. Kramer, F. Sirokmán, A. Borsodi, A. Rónai: J. Label. Comp. Radiopharm. 19 1021 (1976)].

[2] = Hot plate test (analgetic activity); format: in vivo; conditions: sc
[3] = Tail Flick test (analgetic activity); format: in vivo; conditions: sc
[4] = compared with naloxone; cited from earlier work
[5] = compound concentration 10⁻⁵ mol
[6] = compound concentration 10⁻⁷ mol

| Compound | sensitivity to light [1] | residual tritiated specific bonds of Naloxon (opiate receptors; [5]) [%] | residual tritiated specific bonds of Naloxon (opiate receptors; [6]) [%] | Hot plate test ED₅₀ [2] [mg/kg.sc] | Tail Flick ED₅₀ [3] [mg/kg.sc.] | membrane affinity [4] |
| --- | --- | --- | --- | --- | --- | --- |
| COc1ccc2c3c1O[C@H]1C(=NNc4ccccc4)C=C[C@@]4(O)[C@@H](C2)N(C)CC[C@]314 [14-OH-codeinone phenylhydrazone] | sensitive to light | – | – | – | – | – |
| COc1ccc2c3c1O[C@H]1C(=NNc4ccccc4)CC[C@H]4[C@@H](C2)N(C)CC[C@]314 [Dihydrocodeinone phenylhydrazone] | – | 5±1 | 75±9 | 2.4 | 2.3 | – |
| COc1ccc2c3c1O[C@H]1C(=NNC(N)=O)CC[C@H]4[C@@H](C2)N(C)CC[C@]314 [Dihydrocodeinone semicarbazone] | – | 9±7 | 43±4 | 0.38 | 0.35 | – |
| COc1ccc2c3c1O[C@H]1C(=NNC(N)=S)CC[C@H]4[C@@H](C2)N(C)CC[C@]314 [Dihydrocodeinone thiosemicarbazone] | – | – | – | 1.7 | 0.6 | – |
| CN1CC[C@]23c4c5ccc(O)c4O[C@H]2C(=NNc2ccc([N+](=O)[O-])cc2[N+](=O)[O-])CC[C@H]3[C@H]1C5 [Dihydromorphinone dinitrophenylhydrazone, Dihydromorphinone-2,4-dinitrophenyl hydrazone] | – | 0.5±0.7 | 17±2 | 0.27 | 0.18 | – |
| CN1CC[C@]23c4c5ccc(O)c4O[C@H]2C(=NNc2ccccc2)CC[C@H]3[C@H]1C5 [Dihydromorphinone phenylhydrazone] | – | 10±14 | 4±5 | – | – | – |
| CN1CC[C@]23c4c5ccc(O)c4O[C@H]2C(=NNC(N)=O)CC[C@H]3[C@H]1C5 [Dihydromorphinone semicarbazone] | – | 4±6 | 69±13 | 0.085 | 0.13 | – |
| CN1CC[C@]23c4c5ccc(O)c4O[C@H]2C(=NNC(N)=S)CC[C@H]3[C@H]1C5 [Dihydromorphinone thiosemicarbazone] | – | 19±4 | 16±5 | – | – | – |
| CN1CC[C@]23c4c5ccc(O)c4O[C@H]2[C@@H](O)C=C[C@H]3[C@H]1C5 [Morphine, reference compound] | – | – | – | 3.6 | 5.0 | – |
| COc1ccc2c3c1O[C@H]1C(=NN)C=C[C@@]4(O)[C@@H](C2)N(C)CC[C@]314 [Oxycodeinone hydrazone, 14-OH-codeinone hydrazone] | – | 13±7 | 92±25 | – | – | – |
| COc1ccc2c3c1O[C@H]1C(=NNc4ccccc4)CC[C@@]4(O)[C@@H](C2)N(C)CC[C@]314 [Oxycodone phenylhydrazone, 14-OH-dihydrocodeinone phenylhydrazone] | – | – | – | 0.8 | 1.2 | – |
| COc1ccc2c3c1O[C@H]1C(=NNC(N)=O)CC[C@@]4(O)[C@@H](C2)N(C)CC[C@]314 [Oxycodone semicarbazone, 14-OH-dihydrocodeinonesemicarbazone] | – | – | – | 0.58 | 0.45 | – |
| CN1CC[C@]23c4c5ccc(O)c4O[C@H]2C(=NNc2ccc([N+](=O)[O-])cc2[N+](=O)[O-])CC[C@@]3(O)[C@H]1C5 [Oxymorphone dinitrophenylhydrazone, 14-OH-dihydromorphinone-2,4-dinitrophenyl hydrazone] | – | 1±0.3 | 33±1 | 0.37 | 0.27 | – |
| CN1CC[C@]23c4c5ccc(O)c4O[C@H]2C(=NNC(N)=O)CC[C@@]3(O)[C@H]1C5 [Oxymorphone semicarbazone, 14-OH-dihydromarphinone semicarbazone] | – | – | – | 0.9 | 0.9 | – |
| CN1CC[C@]23c4c5ccc(O)c4O[C@H]2C(=NNC(N)=S)CC[C@@]3(O)[C@H]1C5 [Oxymorphone thiosemicarbazone, 14-OH dihydromorphine thiosemicarbazone] | – | 0 | 37±9 | – | – | – |
| C=CCN1CCC23c4c5ccc(O)c4OC2C(=NNc2ccccc2)CCC3(O)C1C5 (stereo not shown) [naloxone phenylhydrazone] | – | – | – | – | – | much weaker membrane affinity than naloxone |
